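Tested at 5 concentrations; 48 h exposure; 96-well plates; endpoints linearly interpolated, else capped at highest concentration. GI50 marks 50% less growth.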 Calls of active or inactive are those of the source. No stated cut-off is given here; in the data, active = GI50 up to about 1.1 µM and inactive = higher.
Legend:
Assay in all cases: DTP human tumour cell line panel, 48 h
IGROV-1 = system: IGROV-1
UACC-62 = system: UACC-62
TK-10 = system: TK-10
DMS-114 = system: DMS-114
SW-620 = system: SW-620
786-0 = system: 786-0
CAKI-1 = system: CAKI-1
NCI-H522 = system: NCI-H522
ACHN = system: ACHN
COLO 205 = system: COLO 205
K562 = system: K562
UACC-257 = system: UACC-257
SK-MEL-2 = system: SK-MEL-2
SNB-19 = system: SNB-19
A498 = system: A498
HCC 2998 = system: HCC 2998

Measured: GI50

C=C(Br)C(C)(Cl)CCC(Br)C(C)(C)Br (stereo unspecified)
inactive: IGROV-1 > 100 µM | UACC-62 47.6 µM | TK-10 > 100 µM | DMS-114 25.4 µM | SW-620 79.8 µM | 786-0 > 100 µM | CAKI-1 > 100 µM | NCI-H522 43.8 µM | ACHN > 100 µM | COLO 205 57 µM | K562 27.4 µM | UACC-257 78.7 µM | SK-MEL-2 29.2 µM

CC(=O)O/N=C/c1ncccc1CO
inactive: IGROV-1 > 100 µM | UACC-62 > 100 µM | TK-10 > 100 µM | DMS-114 > 100 µM | SW-620 > 100 µM | 786-0 > 100 µM | SNB-19 > 100 µM | CAKI-1 > 100 µM | NCI-H522 > 100 µM | ACHN > 100 µM | COLO 205 > 100 µM | K562 > 100 µM | A498 > 100 µM | UACC-257 > 100 µM | SK-MEL-2 > 100 µM

CCOC(=N)/C(=C1\OC(=N)C(c2ccc(Cl)cc2)=C1O)c1ccc(Cl)cc1
inactive: IGROV-1 28.9 µM | UACC-62 15.5 µM | TK-10 28.1 µM | DMS-114 17.3 µM | SW-620 17.6 µM | 786-0 17.8 µM | SNB-19 22.7 µM | CAKI-1 23.2 µM | NCI-H522 15 µM | ACHN 21.3 µM | COLO 205 16.6 µM | K562 19.8 µM | A498 17.8 µM | UACC-257 17.2 µM | HCC 2998 18.1 µM

CC12O[C@H](c3ccccc3)[C@H](c3ccccc3)N1C(=O)C1(C(=O)OCc3ccccc3)CC12 (stereo partly specified)
inactive: IGROV-1 > 100 µM | UACC-62 > 100 µM | DMS-114 39.6 µM | SW-620 > 100 µM | 786-0 > 100 µM | SNB-19 > 100 µM | CAKI-1 > 100 µM | NCI-H522 39.1 µM | ACHN 60.3 µM | COLO 205 89.9 µM | K562 37.3 µM | A498 > 100 µM | UACC-257 59.8 µM | HCC 2998 > 100 µM | SK-MEL-2 33.3 µM

N/N=C1\c2ccccc2C2/C(=N\N)c3ccccc3C12 (stereo unspecified)
inactive: IGROV-1 > 100 µM | UACC-62 > 100 µM | TK-10 > 100 µM | DMS-114 > 100 µM | SW-620 > 100 µM | 786-0 > 100 µM | SNB-19 > 100 µM | CAKI-1 > 100 µM | NCI-H522 > 100 µM | ACHN > 100 µM | COLO 205 > 100 µM | K562 > 100 µM | UACC-257 > 100 µM | HCC 2998 > 100 µM | SK-MEL-2 > 100 µM

Cc1ccc(S(=O)(=O)OCC23CCC(C2)C2CC23)cc1 (stereo unspecified)
inactive: IGROV-1 > 100 µM | UACC-62 > 100 µM | TK-10 > 100 µM | DMS-114 > 100 µM | SW-620 > 100 µM | 786-0 > 100 µM | SNB-19 > 100 µM | CAKI-1 > 100 µM | ACHN > 100 µM | COLO 205 > 100 µM | K562 > 100 µM | A498 > 100 µM | UACC-257 52.1 µM | HCC 2998 > 100 µM

Cc1ccc(NC(=O)CCc2nc(N)nc(N)c2-c2ccccc2)cc1C
inactive: IGROV-1 > 100 µM | UACC-62 > 100 µM | TK-10 > 100 µM | DMS-114 > 100 µM | SW-620 > 100 µM | 786-0 > 100 µM | SNB-19 > 100 µM | CAKI-1 > 100 µM | NCI-H522 > 100 µM | ACHN > 100 µM | COLO 205 > 100 µM | K562 > 100 µM | A498 > 100 µM | UACC-257 > 100 µM | HCC 2998 > 100 µM | SK-MEL-2 > 100 µM

O=C1[C@H]2ON(c3ccccc3)C(c3ccccc3Cl)[C@H]2C(=O)N1c1ccc(Cc2ccc(N3C(=O)[C@@H]4ON(c5ccccc5)C(c5ccccc5Cl)[C@@H]4C3=O)cc2)cc1 (stereo partly specified)
inactive: IGROV-1 > 100 µM | UACC-62 > 100 µM | TK-10 > 100 µM | DMS-114 > 100 µM | SW-620 > 100 µM | 786-0 > 100 µM | SNB-19 > 100 µM | CAKI-1 > 100 µM | NCI-H522 > 100 µM | ACHN > 100 µM | COLO 205 > 100 µM | K562 > 100 µM | A498 > 100 µM | UACC-257 > 100 µM | HCC 2998 > 100 µM | SK-MEL-2 > 100 µM

COc1cc2nc(NCCCCCNC(=O)c3ccco3)nc(N)c2cc1OC
inactive: IGROV-1 41.1 µM | UACC-62 22.2 µM | TK-10 53.1 µM | DMS-114 19.9 µM | SW-620 22.5 µM | 786-0 21.5 µM | SNB-19 38.2 µM | CAKI-1 42.6 µM | NCI-H522 25.4 µM | ACHN 52.5 µM | COLO 205 18.2 µM | K562 29.1 µM | A498 80.2 µM | UACC-257 19.5 µM | HCC 2998 19.4 µM | SK-MEL-2 19.7 µM

O=C(C[n+]1ccccc1)N/N=C(/CCC(=O)N(Cc1ccccc1)Cc1ccccc1)CC(=O)c1ccccc1
inactive: IGROV-1 > 100 µM | UACC-62 > 100 µM | TK-10 > 100 µM | DMS-114 > 100 µM | SW-620 > 100 µM | 786-0 > 100 µM | SNB-19 > 100 µM | CAKI-1 > 100 µM | NCI-H522 > 100 µM | ACHN > 100 µM | COLO 205 > 100 µM | K562 > 100 µM | A498 > 100 µM | UACC-257 > 100 µM | HCC 2998 > 100 µM | SK-MEL-2 > 100 µM

CN(C)C(=O)c1ccc([N+](=O)[O-])cc1
inactive: IGROV-1 > 100 µM | UACC-62 > 100 µM | TK-10 > 100 µM | DMS-114 > 100 µM | SW-620 > 100 µM | 786-0 > 100 µM | SNB-19 > 100 µM | CAKI-1 > 100 µM | NCI-H522 > 100 µM | ACHN > 100 µM | COLO 205 > 100 µM | K562 > 100 µM | A498 > 100 µM | UACC-257 > 100 µM | HCC 2998 > 100 µM | SK-MEL-2 > 100 µM

CC1(C)OC2CC3COC(=O)C3CC2O1 (stereo unspecified)
inactive: IGROV-1 > 100 µM | UACC-62 > 100 µM | TK-10 > 100 µM | DMS-114 > 100 µM | SW-620 > 100 µM | 786-0 > 100 µM | CAKI-1 > 100 µM | NCI-H522 > 100 µM | ACHN > 100 µM | COLO 205 > 100 µM | K562 > 100 µM | A498 > 100 µM | UACC-257 > 100 µM | HCC 2998 > 100 µM | SK-MEL-2 > 100 µM

CCOc1ccccc1/N=N/c1ccc2oc(=O)c(C(=O)Nc3cccc(C)c3)cc2c1
inactive: IGROV-1 39.5 µM | UACC-62 26.2 µM | TK-10 48.3 µM | DMS-114 23.1 µM | SW-620 31.3 µM | 786-0 34 µM | SNB-19 20.3 µM | CAKI-1 49.8 µM | NCI-H522 17.9 µM | COLO 205 26.7 µM | K562 23.3 µM | A498 42.5 µM | UACC-257 26.1 µM | HCC 2998 31.3 µM | SK-MEL-2 19.8 µM

COC(=O)CC[C@]12C[C@]13CC[C@]1(C)C4C(C)C[C@]5(CC(C)C(=O)O5)OC4CC1(C)C3CCC2C(C)(C)O (stereo partly specified)
inactive: IGROV-1 65.6 µM | UACC-62 > 10 µM | TK-10 > 100 µM | DMS-114 59.7 µM | SW-620 56 µM | 786-0 > 100 µM | SNB-19 51.2 µM | NCI-H522 62.1 µM | ACHN 88.3 µM | COLO 205 74.8 µM | K562 49.9 µM | A498 > 100 µM | UACC-257 67.1 µM | HCC 2998 51.5 µM | SK-MEL-2 26.7 µM

Nc1ncnc2c1ncn2[C@]1(CO)C=C(CO)C(O)C1O (stereo partly specified)
inactive: TK-10 > 100 µM | DMS-114 > 100 µM | SW-620 > 100 µM | 786-0 > 100 µM | SNB-19 > 100 µM | CAKI-1 > 100 µM | NCI-H522 > 100 µM | ACHN > 100 µM | COLO 205 > 100 µM | A498 > 100 µM | UACC-257 > 100 µM | HCC 2998 > 100 µM | SK-MEL-2 > 100 µM

Cc1cc(O)cc2oc(=O)c3c(O)cc(O)cc3c12 [ALTERNARIOL]
inactive: IGROV-1 19.7 µM | UACC-62 24 µM | TK-10 44.5 µM | DMS-114 34.4 µM | SW-620 16.2 µM | 786-0 28.6 µM | SNB-19 20 µM | CAKI-1 21 µM | NCI-H522 13.4 µM | ACHN 14.1 µM | COLO 205 27.4 µM | K562 36.6 µM | A498 40.1 µM | UACC-257 > 100 µM | HCC 2998 18.5 µM | SK-MEL-2 37.6 µM

— ChEMBL document CHEMBL1201862, “PubChem BioAssay data set” (2004)
